Measured values: US11958868B2, “Methods of using metal complexes to promote wound healing” (University of Macau, priority 2022, dated 2024)

Assays:
[1] = test system: oxygen depletion, PHD inhibition, proteasomal inhibition; experiment: Alternative mechanisms of HIF activation (oxygen depletion, PHD inhibition, proteasomal inhibition)
[2] = test system: EPO, GLUT1 and VEGF in HIF-1α knockdown HEK293 cells; experiment: HIF-1α knockdown assay in HEK293 cells; assay type: cell-based, Human; conditions: HIF-1α siRNA
Protocol: FIG. 3 depicts the effect of complex 1a on HIF-1α target gene products in cellulo. (A) Effect of complex 1a on specific proteins (GLUT1, VEGF, and EPO) mediated by HIF-1α in HEK293 cells. HEK293 cells were treated with 1a for 2 h. Cell lysis were collected and analyzed by the Western blotting. (B) Complex 1a has no effect on HIF-1α accumulation in a VHL null cancer cell line. A498 (VHL-null), or HEK293 cells were treated with 1% DMSO, 1a (3 μM), VH298 (100 μM), and FG-4592 (100 μM) for 2 h before lysis. (C) Effect of complex 1a on EPO, GLUT1, and VEGF levels in HEK293 cells with or without HIF-1α knockdown. Left: The expression levels of EPO, GLUT1, and VEGF in HEK293 cells with or without knockdown HIF-1α in the presence or absence of 1a. Right: Densitometry analysis of EPO, GLUT1, and VEGF levels on the Western blot. HIF-1α siRNA [sense, 5′-[…]-3′ (SEQ ID NO:1), antisense, 5′-[…]-3′ (SEQ ID NO:2)]. Negative control (NC) siRNA [sense, 5′-[…]-3′ (SEQ ID NO:3), antisense, 5′-[…]-3′ (SEQ ID NO:4)]. Data are expressed as means±SD (n=3 independent experiments), P values were calculated using a two-sided t-test. #P<0.05, P<0.01 HIF-1α siRNA vs. NC siRNA, *P<0.05, **P<0.01 1a vs. vehicle/DMSO group, respectively.
A knockdown assay was performed to further verify the on-target effect of complex 1a. EPO, GLUT1, and VEGF are target genes regulated by HIF-1α. […]

SMILES: COc1cc[n+]2c3c1ccc1c(OC)cc[n+](c13)[Ir-3]213([c]2ccccc2-c2cccc[n+]21)[c]1ccccc1-c1cccc[n+]13.F[P-](F)(F)(F)(F)F [1a]
- Activation of HIF signaling via oxygen depletion, PHD inhibition and/or proteasomal inhibition [1]: unlikely to activate HIF signaling via oxygen depletion, PHD inhibition, and/or proteasomal inhibition
- Accumulation of EPO, GLUT1 and VEGF in HIF-1α knockdown cells compared with normal cells [2]: less able to increase the accumulation of EPO, GLUT1, and VEGF in HIF-1α knockdown cells
